Laboratory results as given in US8168651B2, “Protein kinase modulators” (Cylene Pharmaceuticals, Inc., priority 2008, dated 2012).
Read-outs that look alike come from different tables or passages of the source.

Assays:
Jurkat = experiment: Cell proliferation modulatory activity, Jurkat; assay type: cell-based; details: Homo sapiens
K-562 [1] = experiment: Cell proliferation modulatory activity, K-562; assay type: cell-based; details: Homo sapiens, K562
recombinant human PIM1 = recombinant human PIM1 (Homo sapiens (Human), UniProt P11309); experiment: PIM-1 kinase activity in cell-free in vitro assay; assay type: biochemical; details: for inhibition at 0.5 µM: 500 nM compound, read-out: PIM-1: % inh 500 nM
Sequence of recombinant human PIM1 (P11309 whole entry): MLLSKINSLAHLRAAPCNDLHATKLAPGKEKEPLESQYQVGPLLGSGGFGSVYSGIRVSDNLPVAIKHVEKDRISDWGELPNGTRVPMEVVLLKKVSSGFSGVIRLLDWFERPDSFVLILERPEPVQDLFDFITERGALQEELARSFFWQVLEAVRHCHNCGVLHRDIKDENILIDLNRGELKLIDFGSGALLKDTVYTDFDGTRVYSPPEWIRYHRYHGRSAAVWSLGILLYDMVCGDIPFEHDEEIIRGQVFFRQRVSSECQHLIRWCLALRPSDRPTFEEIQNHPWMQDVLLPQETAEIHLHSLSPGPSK

Flt3 = Flt3 (Homo sapiens (Human), UniProt P36888); experiment: FLT-3 kinase activity in cell free in vitro assay; assay type: biochemical; details: cell-free assay; read-out: FLT-3
Sequence of Flt3 (P36888 27-993): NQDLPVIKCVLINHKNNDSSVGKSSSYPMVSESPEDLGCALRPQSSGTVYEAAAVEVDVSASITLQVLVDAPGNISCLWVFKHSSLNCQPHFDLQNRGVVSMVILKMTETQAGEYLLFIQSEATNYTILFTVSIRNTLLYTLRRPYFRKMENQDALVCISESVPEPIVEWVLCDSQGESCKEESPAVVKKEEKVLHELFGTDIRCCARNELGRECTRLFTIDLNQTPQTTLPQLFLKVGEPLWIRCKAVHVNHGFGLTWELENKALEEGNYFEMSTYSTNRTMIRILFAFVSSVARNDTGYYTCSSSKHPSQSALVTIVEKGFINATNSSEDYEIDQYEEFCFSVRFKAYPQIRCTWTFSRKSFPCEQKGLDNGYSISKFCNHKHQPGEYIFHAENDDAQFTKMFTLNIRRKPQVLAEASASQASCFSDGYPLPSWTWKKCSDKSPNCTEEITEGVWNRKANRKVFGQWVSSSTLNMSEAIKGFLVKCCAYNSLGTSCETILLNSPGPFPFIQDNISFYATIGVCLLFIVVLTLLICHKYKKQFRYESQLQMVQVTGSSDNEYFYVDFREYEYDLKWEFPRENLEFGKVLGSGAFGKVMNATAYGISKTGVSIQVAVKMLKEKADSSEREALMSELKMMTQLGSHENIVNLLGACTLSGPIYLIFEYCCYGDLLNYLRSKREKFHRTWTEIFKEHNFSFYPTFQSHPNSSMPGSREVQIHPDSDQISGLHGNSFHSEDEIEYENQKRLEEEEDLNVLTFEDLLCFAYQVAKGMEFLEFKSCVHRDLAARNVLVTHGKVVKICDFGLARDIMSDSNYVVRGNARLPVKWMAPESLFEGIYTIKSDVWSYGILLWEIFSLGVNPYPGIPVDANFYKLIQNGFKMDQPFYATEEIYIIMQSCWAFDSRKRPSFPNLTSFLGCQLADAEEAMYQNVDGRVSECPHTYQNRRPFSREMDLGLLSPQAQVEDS

MV-4-11 [2] = experiment: Cell proliferation modulatory activity, MV-4-11; assay type: cell-based; details: Homo sapiens, MV4-11
[3] = tested on: HCT-116 human colorectal carcinoma cells; experiment: Cell-proliferation assay using Alamar Blue dye; assay type: cell-based; details: Homo sapiens;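 also: cells exposed to compound for about 4 days, then Alamar Blue added and dye fluorescence read after about 4 h, compared with medium-only control wells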
MV-4-11 [4] = experiment: Cell proliferation modulatory activity, MV-4-11; assay type: cell-based; details: Homo sapiens, MV4-11; remark: listed apart in the source
K-562 [5] = experiment: Cell proliferation modulatory activity, K-562; assay type: cell-based; details: Homo sapiens, K562; remark: listed apart in the source
recombinant human CK2 = recombinant human CK2 (Homo sapiens (Human), UniProt P68400); experiment: CK2 assay (cell-free, 33P-ATP filter plate); assay type: biochemical; details: cell-free assay; for IC50: 15 um ATP, read-out: CK2 (15 um ATP) IC50
Sequence of recombinant human CK2 (P68400 whole entry): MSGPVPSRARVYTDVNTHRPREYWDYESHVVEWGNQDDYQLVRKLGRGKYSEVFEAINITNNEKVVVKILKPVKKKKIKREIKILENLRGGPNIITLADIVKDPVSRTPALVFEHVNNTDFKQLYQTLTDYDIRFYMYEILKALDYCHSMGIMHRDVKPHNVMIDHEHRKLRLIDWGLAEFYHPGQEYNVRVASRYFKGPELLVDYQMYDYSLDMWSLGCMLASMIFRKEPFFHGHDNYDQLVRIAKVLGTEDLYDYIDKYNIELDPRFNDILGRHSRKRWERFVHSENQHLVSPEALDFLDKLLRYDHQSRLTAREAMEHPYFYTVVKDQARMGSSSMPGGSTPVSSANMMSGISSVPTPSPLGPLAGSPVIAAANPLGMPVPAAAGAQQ
Sequence of recombinant human CK2 (P67870 whole entry partner): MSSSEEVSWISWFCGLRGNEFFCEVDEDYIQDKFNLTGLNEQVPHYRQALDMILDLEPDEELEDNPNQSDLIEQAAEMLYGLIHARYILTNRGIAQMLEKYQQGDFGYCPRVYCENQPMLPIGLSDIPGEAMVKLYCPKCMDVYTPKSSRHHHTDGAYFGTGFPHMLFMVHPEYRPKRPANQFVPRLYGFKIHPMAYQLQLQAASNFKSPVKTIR

[6] = HCT-116, read-out: HCT-116 (uM), cell proliferation modulatory activity, HCT-116, second column
[7] = HCT-116, read-out: HCT-116 (uM), cell proliferation modulatory activity, HCT-116, first column
[8] = HCT-116, HCT-116, second HCT-116 column (c8), read-out: HCT-116 (uM), cell proliferation modulatory activity

Compound	IC50 (K-562 [1]) [µM]	inhibition at 0.5 µM (recombinant human PIM1; cell-free assay) [%]	IC50 (Flt3) [nM]	IC50 (MV-4-11 [2]) [µM]	IC50 (MV-4-11 [4]) [µM]	inhibition at 0.5 µM (recombinant human PIM1; cell-free) [%]	IC50 (recombinant human PIM1; cell-free) [nM]	IC50 (K-562 [5]) [µM]	IC50 [3, 8] [µM]	further results
NC(=O)c1ccc2c(c1)nc(Nc1cccc(C(F)(F)F)c1)c1nc(NC3CC3)ncc12	0.157	12.5	343	0.149						IC50 (Jurkat): 1.16 µM
O=C(O)c1ccc2c(c1)nc(Nc1cc(F)cc(Cl)c1)c1ccsc12					0.745	90	299	> 10		IC50 [3, 6]: > 10 µM
O=C(O)c1ccc2c(c1)nc(Nc1ccc(Cl)cc1)c1ccsc12					0.258	69.1	289	> 10		IC50 [3, 7]: 10 µM
NS(=O)(=O)c1cccc(Nc2nc3cc(-c4nnn[nH]4)ccc3c3sccc23)c1					> 10	83.9	88	> 10		IC50 [3, 6]: 10 µM
Brc1cccc(Nc2nc3cc(-c4nnn[nH]4)ccc3c3sccc23)c1					0.549	65.9	220	> 10		IC50 [3, 6]: > 10 µM
Fc1ccc(Nc2nc3cc(-c4nnn[nH]4)ccc3c3sccc23)cc1					4.53	74.3	174	> 10		IC50 [3, 7]: 10 µM
O=C(O)c1ccc2c(c1)nc(NCCN1CCCC1)c1ccsc12					> 10	67.2	244	> 10		IC50 [3, 7]: 10 µM
CC(C)(C)OC(=O)N1CCN(C(=O)c2ccc3c(c2)nc(Nc2cccc(Cl)c2)c2ccncc23)CC1	> 10	-7.41	> 400	> 10					5.97	
c1ccc(Nc2nc3cc(-c4nnn[nH]4)ccc3c3sccc23)cc1					1.09	70.9	262	> 10		IC50 [3, 7]: 10 µM
OCc1ccc2c(c1)nc(Nc1cccc(Cl)c1)c1ccncc12	5.52	4.22	13	0.529						IC50 ([3]; HCT-116, read-out: HCT-116 (uM), cell proliferation modulatory activity, HCT-116, second HCT-116 column (c8)): 4.28 µM
OCc1cccc(Nc2nc3cc(-c4nnn[nH]4)ccc3c3sccc23)c1					0.609	87.6	162	> 10		
Fc1cc(F)cc(Nc2nc3cc(-c4nnn[nH]4)ccc3c3sccc23)c1					2.2	86.9	414	> 10		IC50 [3, 6]: > 10 µM
O=C(Nc1ccccc1)c1ccc2c(c1)nc(Nc1cccc(Cl)c1)c1ccncc12	> 10	-0.772	> 400	0.069					> 10	
O=C(O)c1ccc2c(c1)nc(Nc1cccc(C(F)(F)F)c1)c1ccsc12					> 10	74.7	197	> 10		IC50 [3, 6]: > 10 µM
O=C(NCc1cccnc1)c1ccc2c(c1)nc(Nc1cccc(Cl)c1)c1ccncc12	> 10	-16.2	> 400	0.112					> 10	
O=C(Nc1nccs1)c1ccc2c(c1)nc(Nc1cccc(Cl)c1)c1ccncc12	> 10	-6.62	> 400	> 10					> 10	
CN1CCCN(C(=O)c2ccc3c(c2)nc(Nc2cccc(Cl)c2)c2ccncc23)CC1	> 10	-11.8	> 400	0.171					2.67	

Compound	IC50 (K-562 [1]) [µM]	inhibition at 0.5 µM (recombinant human PIM1; cell-free assay) [%]	IC50 (Flt3) [nM]	IC50 (MV-4-11 [2]) [µM]	IC50 (MV-4-11 [4]) [µM]	inhibition at 0.5 µM (recombinant human PIM1; cell-free) [%]	IC50 (recombinant human PIM1; cell-free) [nM]	IC50 (K-562 [5]) [µM]	IC50 [3, 8] [µM]	further results
O=C(NC1CC1)c1ccc2c(c1)nc(Nc1cccc(Cl)c1)c1ccncc12	> 10	-5.18	> 400	> 10					> 10	IC50 (Jurkat): 2.16 µM; IC50 (recombinant human CK2): 487 nM
CN(C)CCNc1nc2cc(C(=O)O)ccc2c2cnccc12					> 10	63.6	242	> 10		
O=C(O)c1ccc2c(c1)nc(NCCc1cccc(F)c1)c1ccncc12 [drawing 1560]					> 10	74	351			IC50 [3, 6]: > 10 µM
Cc1cnc(CNC(=O)c2ccc3c(c2)nc(Nc2cccc(Cl)c2)c2ccncc23)cn1	> 10	-19.8	362	> 10					> 10	
CC(=O)N1CCN(C(=O)c2ccc3c(c2)nc(Nc2cccc(Cl)c2)c2ccncc23)CC1	> 10	-5.01	> 400	> 10					> 10	
O=C(O)c1ccc2c(c1)nc(Nc1ccccc1)c1ccncc12					6.45	21.9	1020	4.01		
CN(C)C(=O)c1ccc2c(c1)nc(Nc1cccc(Cl)c1)c1ccncc12	> 10	4.85	> 400	> 10					8.17	IC50 (Jurkat): 1.51 µM; IC50 (recombinant human CK2): > 750 nM
O=C(NCc1ccncc1)c1ccc2c(c1)nc(Nc1cccc(Cl)c1)c1ccncc12	> 10	-12.8	> 400	0.181					2.5	
O=C(NCc1ccccc1)c1ccc2c(c1)nc(Nc1cccc(Cl)c1)c1ccncc12	> 10	-29.4	331	0.095					> 10	
NC(=O)c1ccc2c(c1)nc(Nc1cccc(Cl)c1)c1ccncc12 [drawing 1674]	1.23	-3.44	3	0.037					2.13	IC50 (Jurkat): 0.91 µM; inhibition at 0.5 µM (recombinant human CK2; 500 nM compound, read-out: CK2: % inh 500 nM): 91.2%; IC50 (recombinant human CK2): 417 nM
CN1CCN(C(=O)c2ccc3c(c2)nc(Nc2cccc(Cl)c2)c2ccncc23)CC1	> 10	-28.4	> 400	> 10					> 10	
COCCNC(=O)c1ccc2c(c1)nc(Nc1cccc(Cl)c1)c1ccncc12	> 10	-29.7	> 400	0.043					> 10	
CC(C)OC(=O)Nc1ccc2c(c1)nc(Nc1cccc(C(F)(F)F)c1)c1nc(NC3CC3)ncc12	0.061	10.1	> 400	0.108						IC50 (Jurkat): 1.16 µM
NCCNC(=O)c1ccc2c(c1)nc(Nc1cccc(Cl)c1)c1ccncc12	> 10	-19.8	> 400	> 10					7.22	IC50 (Jurkat): 7.67 µM
N#Cc1cccc(Nc2nc3cc(C(=O)O)ccc3c3sccc23)c1					0.226	71.4	213	> 10		
O=C(c1ccc2c(c1)nc(Nc1cccc(Cl)c1)c1ccncc12)N1CCOCC1	> 10	-14.4	> 400	> 10					> 10	
